Values quoted from earlier work, collected in patent US20050004018A1, “Use of antitumoral compound in cancer therapy” (priority 2001, published 2005).

Assays:
dogs = conditions: cited from earlier work
cancer patients = conditions: cited from earlier work
murine progenitor cells = conditions: cited from earlier work
rats = conditions: single or fractionated dose, intravenous; cited from earlier work
human tumor xenografts = conditions: broad range of in vivo tumor models, including human tumor xenografts in nude mice; cited from earlier work

## ecteinascidin 743 [ET-743]
dogs; following administration
  further toxicity in dogs: vomiting and diarrhoea
dogs; single or fractionated dose, intravenous, dogs
  toxicity: reversible hematological and hepatic toxicity
Cancer patients; 72 hr infusion every 3 weeks
  MTD: 1200 μg/M^2
  RD: 1050 μg/M^2
Cancer patients; at 1200 μg/M^2 (MTD)
  reversible grade 4 transaminases elevation: 2 out of 9
Cancer patients; at the RD (1050 μg/M^2), % of patients
  grade 3 hypertransaminasemia: 50%
Cancer patients; at the RD (1050 μg/M^2)
  grade 4 hypertransaminasemia: there was not any grade 4 hypertransaminasemia
Murine progenitor cells
  sensitivity of progenitor cells: equal sensitivity of erythropoid and myeloid cells
rats
  toxicity: reversible hematological and hepatic toxicity
Human tumor xenografts
  antitumor activity in vivo: Potent antitumor activity
